{"source": "patent US20220306659A1", "about": "“COMPOUND INHIBITING AND INDUCING DEGRADATION OF EGFR AND ALK” (BEIJING TIDE PHARMACEUTICAL CO., LTD., priority 2019, published 2022)", "key": {"EGFR^L858R/T790M/C797S": {"biological_target": "EGFR^L858R/T790M/C797S (Homo sapiens, UniProt P00533, C797S/L858R/T790M)", "sequence (P00533 25-1210 T790M/C797S/L858R)": "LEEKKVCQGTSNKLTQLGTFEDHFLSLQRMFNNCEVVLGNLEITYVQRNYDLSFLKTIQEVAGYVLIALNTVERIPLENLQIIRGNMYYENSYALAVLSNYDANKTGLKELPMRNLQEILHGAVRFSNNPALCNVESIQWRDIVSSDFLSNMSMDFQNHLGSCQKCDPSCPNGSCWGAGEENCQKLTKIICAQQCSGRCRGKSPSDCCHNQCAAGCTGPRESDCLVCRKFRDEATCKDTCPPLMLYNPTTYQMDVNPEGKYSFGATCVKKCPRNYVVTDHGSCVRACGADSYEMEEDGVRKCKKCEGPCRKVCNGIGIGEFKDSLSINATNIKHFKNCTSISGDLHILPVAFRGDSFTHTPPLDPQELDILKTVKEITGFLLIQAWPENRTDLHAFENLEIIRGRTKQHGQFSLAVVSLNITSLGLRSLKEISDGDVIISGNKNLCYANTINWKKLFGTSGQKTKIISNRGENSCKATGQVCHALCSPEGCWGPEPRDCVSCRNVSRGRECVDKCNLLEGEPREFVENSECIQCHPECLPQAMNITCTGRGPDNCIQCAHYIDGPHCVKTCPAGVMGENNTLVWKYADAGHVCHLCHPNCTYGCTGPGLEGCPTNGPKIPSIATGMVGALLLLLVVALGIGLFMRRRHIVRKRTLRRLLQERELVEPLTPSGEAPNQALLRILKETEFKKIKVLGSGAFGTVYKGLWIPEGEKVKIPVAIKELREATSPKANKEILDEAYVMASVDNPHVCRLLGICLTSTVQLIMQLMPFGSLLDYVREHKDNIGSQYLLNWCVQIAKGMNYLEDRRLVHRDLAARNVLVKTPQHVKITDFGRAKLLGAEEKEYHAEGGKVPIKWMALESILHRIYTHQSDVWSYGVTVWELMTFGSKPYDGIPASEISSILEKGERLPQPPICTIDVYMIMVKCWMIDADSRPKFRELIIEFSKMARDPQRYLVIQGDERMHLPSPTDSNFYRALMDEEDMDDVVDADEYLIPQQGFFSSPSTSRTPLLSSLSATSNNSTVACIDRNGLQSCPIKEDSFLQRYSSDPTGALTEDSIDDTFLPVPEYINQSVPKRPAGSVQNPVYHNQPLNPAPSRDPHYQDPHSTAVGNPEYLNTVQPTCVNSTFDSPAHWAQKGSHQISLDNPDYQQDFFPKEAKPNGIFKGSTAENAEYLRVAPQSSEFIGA", "test": "EGFR inhibitory activity assay (TK-substrate-biotin/ATP, 665/615 ratio)", "type": "biochemical", "details": "kinase inhibition", "method": "EGFR Inhibitory Activity Assay\n(1) A compound stock solution was prepared and diluted 3× to obtain a compound dilution; 10 nL of the compound dilution was transferred to a 384-well plate (784075, Greiner) by Echo 550;\n(2) The plate was sealed, and centrifuged at 1,000 g for 1 min;\n(4) 5 μl of the 2×EGFR protein working solution was added to the 384-well plate from step (2), centrifuged at 1,000 g for 30 s, and allowed to stand at room temperature (mixed thoroughly) for 10 min;\n(6) 5 µL of the TK-substrate-biotin and ATP (the mixture prepared in step (5)) was added to the 384-well plate from step (4) to initiate the reaction;\n(7) The mixture was centrifuged at 1,000 g for 30 s; the plate was sealed, and allowed to stand (and reacted) at room temperature for 40 min;\n(8) 4×Sa-XL 665 and TK-antibody-Cryptate were prepared with detection buffer;\n(9) 5 µL of the Sa-XL 665 and 5 µL of the TK-antibody-Cryptate were added successively to the 384-well plate from step (7);\n(10) The mixture was centrifuged at 1,000 g for 30 s, and allowed to stand (reacted) at room temperature for 1 h;\n(11) The fluorescence values were read at 615 nm and 665 nm by enzyme labeling instrument (PerkinElmer, 74785).\nThe ratio (665/615) of each well was calculated.\nFormula of inhibition rate (%): […]\nRatiocmpd: Ratio (665/615) value of assay compound.\nRatiopositive: Average ratio (665/615) value of positive control.\nRatiovehicle: Average ratio (665/615) value of negative control.\n(§1) The nonlinear regression curve (dose response-variable slope) between the value of inhibition rate (%) and the logarithm of compound concentration was fitted with graphpad prism 8.0, the effect dose curve of compound was drawn, and the IC50 value was calculated."}, "[1]": {"biological_target": "Ba/F3(EGFR^L858R/T790M/C797S) cells (Homo sapiens, UniProt P00533, T790M/C797S/L858R, cells depend on it)", "sequence (P00533 whole entry T790M/C797S/L858R)": "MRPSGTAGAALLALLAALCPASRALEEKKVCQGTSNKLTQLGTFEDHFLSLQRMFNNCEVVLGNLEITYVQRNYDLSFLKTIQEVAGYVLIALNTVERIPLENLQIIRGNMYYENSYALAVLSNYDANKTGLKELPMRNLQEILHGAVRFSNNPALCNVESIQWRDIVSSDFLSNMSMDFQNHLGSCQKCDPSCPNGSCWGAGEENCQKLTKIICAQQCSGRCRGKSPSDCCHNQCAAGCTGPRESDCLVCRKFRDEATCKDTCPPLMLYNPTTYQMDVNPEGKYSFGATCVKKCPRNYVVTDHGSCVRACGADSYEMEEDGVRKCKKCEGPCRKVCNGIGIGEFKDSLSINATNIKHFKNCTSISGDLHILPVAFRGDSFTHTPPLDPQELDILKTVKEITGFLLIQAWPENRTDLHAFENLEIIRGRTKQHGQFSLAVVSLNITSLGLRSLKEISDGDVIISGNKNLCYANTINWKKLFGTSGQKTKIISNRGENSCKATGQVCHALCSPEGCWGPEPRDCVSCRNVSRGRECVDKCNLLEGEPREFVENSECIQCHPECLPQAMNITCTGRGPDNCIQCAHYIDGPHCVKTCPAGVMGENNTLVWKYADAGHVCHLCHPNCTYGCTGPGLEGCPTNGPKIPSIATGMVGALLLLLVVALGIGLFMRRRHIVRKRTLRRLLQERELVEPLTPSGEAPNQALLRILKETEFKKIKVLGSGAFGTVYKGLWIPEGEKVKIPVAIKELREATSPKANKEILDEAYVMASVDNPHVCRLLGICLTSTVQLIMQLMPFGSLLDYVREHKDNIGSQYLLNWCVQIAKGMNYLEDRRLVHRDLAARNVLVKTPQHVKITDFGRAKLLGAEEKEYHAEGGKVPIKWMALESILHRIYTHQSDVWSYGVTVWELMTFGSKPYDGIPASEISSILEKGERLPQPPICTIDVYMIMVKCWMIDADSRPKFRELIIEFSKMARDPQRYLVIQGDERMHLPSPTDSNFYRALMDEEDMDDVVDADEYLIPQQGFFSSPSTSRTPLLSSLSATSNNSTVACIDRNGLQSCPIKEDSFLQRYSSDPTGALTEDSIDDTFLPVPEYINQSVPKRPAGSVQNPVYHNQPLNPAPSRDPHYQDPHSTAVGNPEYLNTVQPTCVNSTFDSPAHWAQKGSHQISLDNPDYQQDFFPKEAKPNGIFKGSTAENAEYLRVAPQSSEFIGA", "test": "Assay of activity on Ba/F3 cells (CTG, 72 h)", "type": "cell-based", "details": "read-out: IC50 (nM) Ba/F3 (EGFR^L858R/T790M/C797S)", "method": "(§2) (2) A compound stock solution was prepared, and then diluted 3× to obtain a compound dilution. 30 nL of the compound dilution was added to a 384-well plate by Echo (Labcyte, Echo550). The cells were incubated in an incubator at 37° C. and 5% CO2 for 72 h.\n(§3) The percent inhibition rate (% inhibition) was calculated by the following formula\n(§4) LUMcmpd: Luminescence value of assay compound.\n(§5) LUMpositive: Average LUM value of positive drug at a concentration of 10 μM.\n(§6) LUMvehicle. Average LUM value of negative control group without drug treatment.\nas §1\n(§7) Y=Bottom+(Top−Bottom)/(1+1^((LogIC50−X)*HillSlope))\n(§8) X-axis: logarithm of compound concentration; Y axis: inhibition rate ([…])."}, "[2]": {"biological_target": "Ba/F3(EGFR^Del19/T790M/C797S) cells (Homo sapiens, UniProt P00533, DEL746-750/T790M/C797S, cells depend on it)", "sequence (P00533 with tags, fused parts or gaps DEL746-750/T790M/C797S)": "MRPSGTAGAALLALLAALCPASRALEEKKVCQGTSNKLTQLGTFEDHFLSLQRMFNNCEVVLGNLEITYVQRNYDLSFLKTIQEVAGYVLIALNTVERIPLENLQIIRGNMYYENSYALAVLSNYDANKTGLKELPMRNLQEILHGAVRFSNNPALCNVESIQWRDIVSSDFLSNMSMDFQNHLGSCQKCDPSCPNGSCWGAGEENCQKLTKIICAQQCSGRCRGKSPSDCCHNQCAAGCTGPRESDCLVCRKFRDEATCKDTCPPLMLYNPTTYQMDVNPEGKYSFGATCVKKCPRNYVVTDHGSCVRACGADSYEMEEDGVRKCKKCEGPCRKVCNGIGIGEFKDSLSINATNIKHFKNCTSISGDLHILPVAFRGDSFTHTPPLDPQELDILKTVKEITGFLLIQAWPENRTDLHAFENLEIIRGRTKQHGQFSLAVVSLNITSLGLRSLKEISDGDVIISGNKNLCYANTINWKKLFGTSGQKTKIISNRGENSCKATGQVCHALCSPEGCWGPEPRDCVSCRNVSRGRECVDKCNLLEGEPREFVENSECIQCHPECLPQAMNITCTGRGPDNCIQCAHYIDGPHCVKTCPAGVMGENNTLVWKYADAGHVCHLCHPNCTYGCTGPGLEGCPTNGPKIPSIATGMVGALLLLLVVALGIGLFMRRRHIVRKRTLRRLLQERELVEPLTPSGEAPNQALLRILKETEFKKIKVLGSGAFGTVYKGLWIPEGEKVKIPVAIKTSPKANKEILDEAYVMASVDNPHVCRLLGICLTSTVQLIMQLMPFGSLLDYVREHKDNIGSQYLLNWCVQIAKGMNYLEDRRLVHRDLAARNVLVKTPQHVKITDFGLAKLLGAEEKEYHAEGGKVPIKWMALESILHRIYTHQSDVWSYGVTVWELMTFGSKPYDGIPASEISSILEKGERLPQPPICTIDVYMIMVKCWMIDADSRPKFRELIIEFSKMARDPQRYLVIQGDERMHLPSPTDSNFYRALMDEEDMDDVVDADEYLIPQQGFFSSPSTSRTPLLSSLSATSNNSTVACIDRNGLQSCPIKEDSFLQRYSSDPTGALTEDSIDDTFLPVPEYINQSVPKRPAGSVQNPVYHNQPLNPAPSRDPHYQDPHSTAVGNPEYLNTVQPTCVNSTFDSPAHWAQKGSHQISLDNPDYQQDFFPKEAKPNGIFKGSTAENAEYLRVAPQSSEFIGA", "test": "Assay of activity on Ba/F3 cells (CTG, 72 h)", "type": "cell-based", "details": "read-out: IC50 (nM) Ba/F3 (EGFR^Del19/T790M/C797S)", "method": "as §2, §3, §4, §5, §6, §1, §7, §8"}}}
{"smiles": "COc1cc(N2CCC(N3CCN(CC(=O)NCCNc4cccc5c4C(=O)N(C4CCC(=O)NC4=O)C5=O)CC3)CC2)ccc1Nc1ncc(Cl)c(Nc2ccccc2P(C)(C)=O)n1", "note": "(stereo not drawn) [Compound A6, 2-(4-(1-(4-((5-chloro-4-((2-(dimethylphosphoryl)phenyl)amino)pyrimidin-2-yl)amino)-3-methoxyphenyl)piperidin-4-yl)piperazin-1-yl)-N-(2-((2-(2,6-dioxopiperidin-3-yl)-1,3-dioxoisoindolin-4-yl)amino)ethyl)acetamide]", "values": [{"measurement": "IC50", "setting": "EGFR^L858R/T790M/C797S", "result": "1 to 100", "unit": "nM"}]}
{"smiles": "C=Cc1cnc(Nc2ccc(N3CCC(N4CCN(CCCCCCCCCOc5cccc6c5C(=O)N(C5CCC(=O)NC5=O)C6=O)CC4)CC3)cc2OC)nc1Nc1ccccc1P(C)(C)=O", "note": "(stereo not drawn) [Compound C25, 4-((9-(4-(1-(4-((4-((2-(dimethylphosphoryl)phenyl)amino)-5-vinylpyrimidin-2-yl)amino)-3-methoxyphenyl)piperidin-4-yl)piperazin-1-yl)nonyl)oxy)-2-(2,6-dioxopiperidin-3-yl)isoindoline-1,3-dione]", "values": [{"measurement": "GI50", "setting": "[1]", "result": "201 to 300", "unit": "nM"}, {"measurement": "IC50", "setting": "EGFR^L858R/T790M/C797S", "result": "101 to 200", "unit": "nM"}]}
{"smiles": "COc1cc(N2CCC(N3CCN(CC(=O)N4CCC(OCC(=O)Nc5cccc6c5CN(C5CCC(=O)NC5=O)C6=O)CC4)CC3)CC2)ccc1Nc1ncc(Cl)c(Nc2ccccc2P(C)(C)=O)n1", "note": "(stereo not drawn) [Compound C78, 2-((1-(2-(4-(1-(4-((5-chloro-4-((2-(dimethylphosphoryl)phenyl)amino)pyrimidin-2-yl)amino)-3-methoxyphenyl)piperidin-4-yl)piperazin-1-yl)acetyl)piperidin-4-yl)oxy)—N-(2-(2,6-dioxopiperidin-3-yl)-1-oxoisoindolin-4-yl)acetamide]", "values": [{"measurement": "GI50", "setting": "[1]", "result": "> 300", "unit": "nM"}, {"measurement": "IC50", "setting": "EGFR^L858R/T790M/C797S", "result": "1 to 100", "unit": "nM"}]}
{"smiles": "COc1cc(N2CCC(N3CCN(CC(=O)NC4CCN(CC(=O)Nc5cccc6c5CN(C5CCC(=O)NC5=O)C6=O)CC4)CC3)CC2)ccc1Nc1ncc(Cl)c(Nc2ccccc2P(C)(C)=O)n1", "note": "(stereo not drawn) [Compound C88, 2-(4-(1-(4-((5-chloro-4-((2-(dimethylphosphoryl)phenyl)amino)pyrimidin-2-yl)amino)-3-methoxyphenyl)piperidin-4-yl)piperazin-1-yl)-N-(1-(2-((2-(2,6-dioxopiperidin-3-yl)-1-oxoisoindolin-4-yl)amino)-2-oxoethyl)piperidin-4-yl)acetamide]", "values": [{"measurement": "GI50", "setting": "[1]", "result": "> 300", "unit": "nM"}, {"measurement": "IC50", "setting": "EGFR^L858R/T790M/C797S", "result": "1 to 100", "unit": "nM"}]}
{"smiles": "COc1cc(N2CCC(N3CCN(C(=O)CN4CCN(C(=O)COc5cccc6c5C(=O)N(C5CCC(=O)NC5=O)C6=O)CC4)CC3)CC2)ccc1Nc1ncc(Cl)c(Nc2ccccc2P(C)(C)=O)n1", "note": "(stereo not drawn) [Compound C99, 4-(2-(4-(2-(4-(1-(4-((5-chloro-4-((2-(dimethylphosphoryl)phenyl)amino)pyrimidin-2-yl)amino)-3-methoxyphenyl)piperidin-4-yl)piperazin-1-yl)-2-oxoethyl)piperazin-1-yl)-2-oxoethoxy)-2-(2,6-dioxopiperidin-3-yl)isoindoline-1,3-dione]", "values": [{"measurement": "GI50", "setting": "[1]", "result": "> 300", "unit": "nM"}, {"measurement": "IC50", "setting": "EGFR^L858R/T790M/C797S", "result": "1 to 100", "unit": "nM"}]}
{"smiles": "COc1cc(N2CCC(N3CCN(C(=O)COc4cccc5c4C(=O)N(C4CCC(=O)NC4=O)C5=O)CC3)CC2)ccc1Nc1ncc(Cl)c(Nc2ccccc2P(C)(C)=O)n1", "note": "(stereo not drawn) [Compound C101, 4-(2-(4-(1-(4-((5-chloro-4-((2-(dimethylphosphoryl)phenyl)amino)pyrimidin-2-yl)amino)-3-methoxyphenyl)piperidin-4-yl)piperazin-1-yl)-2-oxoethoxy)-2-(2,6-dioxopiperidin-3-yl)isoindoline-1,3-dione]", "values": [{"measurement": "GI50", "setting": "[1]", "result": "> 300", "unit": "nM"}, {"measurement": "IC50", "setting": "EGFR^L858R/T790M/C797S", "result": "1 to 100", "unit": "nM"}]}
{"smiles": "COc1cc(N2CCC(N3CCN(C(=O)C4(C(=O)Oc5cccc6c5C(=O)N(C5CCC(=O)NC5=O)C6=O)CC4)CC3)CC2)ccc1Nc1ncc(Cl)c(Nc2ccccc2P(C)(C)=O)n1", "note": "(stereo not drawn) [Compound C104, 1-(4-(1-(4-((5-chloro-4-((2-(dimethylphosphoryl)phenyl)amino)pyrimidin-2-yl)amino)-3-methoxyphenyl)piperidin-4-yl)piperazine-1-carbonyl)cyclopropane-1-carboxylate 2-(2,6-dioxopiperidin-3-yl)-1,3-dioxoisoindolin-4-yl ester]", "values": [{"measurement": "GI50", "setting": "[1]", "result": "> 300", "unit": "nM"}, {"measurement": "IC50", "setting": "EGFR^L858R/T790M/C797S", "result": "1 to 100", "unit": "nM"}]}
{"smiles": "COc1cc(N2CCC(N3CCN(CC(=O)N4CC(F)(F)C[C@H]4C(=O)Nc4cccc5c4CN(C4CCC(=O)NC4=O)C5=O)CC3)CC2)ccc1Nc1ncc(Cl)c(Nc2ccccc2P(C)(C)=O)n1", "note": "(stereo partly drawn) [Compound C110, (2S)-1-(2-(4-(1-(4-((5-chloro-4-((2-(dimethylphosphoryl)phenyl)amino)pyrimidin-2-yl)amino)-3-methoxyphenyl)piperidin-4-yl)piperazin-1-yl)acetyl)-N-(2-(2,6-dioxopiperidin-3-yl)-1-oxoisoindolin-4-yl)-4,4-difluoropyrrolidine-2-carboxamide]", "values": [{"measurement": "GI50", "setting": "[1]", "result": "> 300", "unit": "nM"}, {"measurement": "IC50", "setting": "EGFR^L858R/T790M/C797S", "result": "1 to 100", "unit": "nM"}]}
{"smiles": "COc1cc(N2CCC(N3CCN(CC(=O)N[C@H](COc4cccc5c4C(=O)N(C4CCC(=O)NC4=O)C5=O)C(C)(C)C)CC3)CC2)ccc1Nc1ncc(Cl)c(Nc2ccccc2P(C)(C)=O)n1", "note": "(stereo partly drawn) [Compound C112, 2-(4-(1-(4-((5-chloro-4-((2-(dimethylphosphoryl)phenyl)amino)pyrimidin-2-yl)amino)-3-methoxyphenyl)piperidin-4-yl)piperazin-1-yl)-N-((2S)-1-((2-(2,6-dioxopiperidin-3-yl)-1,3-dioxoisoindolin-4-yl)oxy)-3,3-dimethylbutan-2-yl)acetamide]", "values": [{"measurement": "IC50", "setting": "EGFR^L858R/T790M/C797S", "result": "1 to 100", "unit": "nM"}]}
{"smiles": "COc1cc(N2CCC(N3CCN(CCCCCC#Cc4cccc5c4C(=O)N(C4CCC(=O)NC4=O)C5=O)CC3)CC2)ccc1Nc1ncc(Cl)c(Nc2ccccc2P(C)(C)=O)n1", "note": "(stereo not drawn) [Compound C148, 4-(7-(4-(1-(4-((5-chloro-4-((2-(dimethylphosphoryl)phenyl)amino)pyrimidin-2-yl)amino)-3-methoxyphenyl)piperidin-4-yl)piperazin-1-yl)hept-1-yn-1-yl)-2-(2,6-dioxopiperidin-3-yl)isoindoline-1,3-dione]", "values": [{"measurement": "GI50", "setting": "[1]", "result": "> 300", "unit": "nM"}, {"measurement": "IC50", "setting": "EGFR^L858R/T790M/C797S", "result": "1 to 100", "unit": "nM"}]}
{"smiles": "COc1cc(N2CCC(N3CCN(CCCCC#Cc4ccc(F)c5c4CN(C4CCC(=O)NC4=O)C5=O)CC3)CC2)ccc1Nc1ncc(Cl)c(Nc2ccccc2P(C)(C)=O)n1", "note": "(stereo not drawn) [Compound C244, 3-(4-(6-(4-(1-(4-((5-chloro-4-((2-(dimethylphosphoryl)phenyl)amino)pyrimidin-2-yl)amino)-3-methoxyphenyl)piperidin-4-yl)piperazin-1-yl)hex-1-yn-1-yl)-7-fluoro-1-oxoisoindolin-2-yl)piperidine-2,6-dione]", "values": [{"measurement": "GI50", "setting": "[1]", "result": "1 to 100", "unit": "nM"}, {"measurement": "GI50", "setting": "[2]", "result": "1 to 100", "unit": "nM"}]}
{"smiles": "COc1cc(N2CCC(N3CCN(CCCCCOc4cccc5c4CN(C4CCC(=O)NC4=O)C5=O)CC3)CC2)c(C)cc1Nc1ncc(Br)c(Nc2ccc3nccnc3c2P(C)(C)=O)n1", "note": "(stereo not drawn) [Compound C246, 3-(4-((5-(4-(1-(4-((5-bromo-4-((5-(dimethylphosphoryl)quinoxalin-6-yl)amino)pyrimidin-2-yl)amino)-5-methoxy-2-methylphenyl)piperidin-4-yl)piperazin-1-yl)pentyl)oxy)-1-oxoisoindolin-2-yl)piperidine-2,6-dione]", "values": [{"measurement": "GI50", "setting": "[1]", "result": "1 to 100", "unit": "nM"}, {"measurement": "GI50", "setting": "[2]", "result": "1 to 100", "unit": "nM"}]}
{"smiles": "COc1cc(N2CCC3(CCN(CCCCCCc4cccc5c4CN(C4CCC(=O)NC4=O)C5=O)CC3)CC2)c(C)cc1Nc1ncc(Br)c(Nc2ccc3nccnc3c2P(C)(C)=O)n1", "note": "(stereo not drawn) [Compound C299, 3-(4-(6-(9-(4-((5-bromo-4-((5-(dimethylphosphoryl)quinoxalin-6-yl)amino)pyrimidin-2-yl)amino)-5-methoxy-2-methylphenyl)-3,9-diazaspiro[5.5]undecan-3-yl)hexyl)-1-oxoisoindolin-2-yl)piperidine-2,6-dione]", "values": [{"measurement": "GI50", "setting": "[1]", "result": "1 to 100", "unit": "nM"}, {"measurement": "GI50", "setting": "[2]", "result": "1 to 100", "unit": "nM"}]}
